The subject of series [1] is RAW264.7. Description: Inhibition of LPS-induced TNFalpha production in mouse RAW264.7 cells preincubated for 2 hrs followed by LPS treatment for 24 hrs by RT-qPCR analysis. In kind it is functional, cell-based. In general terms: Real-time PCR tracks product formation cycle by cycle.
Series [2] is described as follows: MRT (0 to infinity) in 12 hr starved C57 mouse at 30 mg/kg, po measured for 0.083 to 24 hrs post-dose by LC-MS-MS analysis. In kind it is ADME, organism-based. The settings on record: in vivo, time 0.083-24 hrs.
For series [3], the system named is Mus musculus. Nature of the series: Anti-ulcerative colitis activity against DSS-induced ulcerative colitis C57BL/6 mouse model assessed as body weight recovery rate at 10 mg/kg, IG via gavage administered for 7 days and measured everyday relative to control. In kind it is functional. The settings on record: time 7 day.
Series [4] deals with Mus musculus. Description: Anti-ulcerative colitis activity in DSS-induced C57BL/6 mouse ulcerative colitis model assessed as colon length recovery ratio at 1 mg/kg, IG via gavage measured after 7 days relative to control. In kind it is functional. The following applies: time 7 day.
Series [5] concerns Mus musculus. Description: Antiinflammatory activity against DSS-induced C57BL/6 mouse model of acute ulcerative colitis assessed as inhibition ratio of IL-6 protein expression at 10 mg/kg, IG via gavage measured after 7 days by ELISA relative to control. In kind it is functional. Further details: scale not given: the % may be the effect or the level left. The settings on record: time 7 day. Background: ELISA stands for enzyme-linked immunosorbent assay.

The subject of series [6] is Mus musculus. Description: Antiinflammatory activity against DSS-induced C57BL/6 mouse model of acute ulcerative colitis assessed as inhibition ratio of IL-23 mRNA expression in colon tissue at 1 mg/kg, IG via gavage measured after 7 days by RT-qPCR analysis relative to control. Further details: scale not given: the % may be the effect or the level left. In kind it is functional. The settings on record: time 7 day.

For series [7], the system named is RAW264.7. Description: Inhibition of MKK3-p38-elF4E signaling pathway in mouse RAW264.7 cells assessed as reduction in LPS-induced MK2 phosphorylation treated for 1.5 hrs followed by LPS treatment for 1 hr by Western blot analysis. The format is cell-based. The settings on record: dose 3.125-12.5 µmol/L, time 2.5 hrs, DDE = dose-dependent effect. For orientation: A western blot detects proteins with antibodies after separation by electrophoresis.

Series [8] concerns Mus musculus. Nature of the series: Anti-ulcerative colitis activity against DSS-induced ulcerative colitis C57BL/6 mouse model assessed as reduction in DAI score at 3 mg/kg, IG via gavage administered for 7 days and measured everyday (reference value: 4.0). The format is functional. The following applies: time 7 day.
Series [9] deals with Mus musculus. Nature of the series: Antiinflammatory activity against DSS-induced C57BL/6 mouse model of acute ulcerative colitis assessed as inhibition of IL-1beta mRNA expression in colon tissue administered intragastrically via gavage measured after 7 days by RT-qPCR analysis. In kind it is functional, organism-based. The following applies: route ig, time 7.0 day, DDE = dose-dependent effect.

For series [10], the system named is Mus musculus. Nature of the series: Antiinflammatory activity against IL-10-/- C57BL/6 mouse model of acute ulcerative colitis assessed as decrease in serum IL-1beta levels administered intragastrically via gavage measured after 8 weeks by ELISA. The format is functional, organism-based. The settings on record: dose 3-10 mg/kg, route ig, DDE = dose-dependent effect.

Series [11] has as its target T1, Dual specificity mitogen-activated protein kinase kinase 3 (Mus musculus) (UniProt O09110).
T1 sequence (whole entry): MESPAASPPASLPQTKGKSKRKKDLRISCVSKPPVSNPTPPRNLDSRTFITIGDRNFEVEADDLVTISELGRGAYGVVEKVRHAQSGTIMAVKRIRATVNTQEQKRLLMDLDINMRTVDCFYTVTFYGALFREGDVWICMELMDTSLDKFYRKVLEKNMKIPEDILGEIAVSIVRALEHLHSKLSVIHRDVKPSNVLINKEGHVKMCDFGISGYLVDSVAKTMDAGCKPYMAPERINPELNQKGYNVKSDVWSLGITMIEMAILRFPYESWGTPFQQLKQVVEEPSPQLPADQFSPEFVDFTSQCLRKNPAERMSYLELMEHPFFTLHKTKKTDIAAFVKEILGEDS
Description: Binding affinity to MKK3 in mouse RAW264.7 cells assessed as increase in thermal stability at 47 degC incubated for 24 hrs by CETSA. The format is cell-based. The settings on record: dose 1-64 µM, DDE = dose-dependent effect.

The values that follow come from ChEMBL document CHEMBL5154881, “Discovery of First-in-Class TAK1-MKK3 Protein-Protein Interaction (PPI) Inhibitor (R)-STU104 for the Treatment of Ulcerative Colitis through Modulating TNF-α Production” (J Med Chem, 2022).

The structures appear in SMILES notation.

As a reminder, the IC50 is the concentration that gives 50% inhibition. For orientation: MRT inf means a mean duration of stay, worked out from the concentration-time curve. Consider `COc1ccc([C@H]2CC(=O)c3cc(OC)cc(OC)c32)cc1`, for which, in [1], half-maximal inhibition (IC50) was put at 580 nM. Further, in series [2], the MRT inf was 12.5 h. Further, the Activity in [3] was 52.4%; in [4], 33.3%; in [5], 56.1%; in [6], 71.7%; in [8], 2.4; in series [9] it was “Dde”. Also, the Activity entry in [10] and in series [11] was “Dde” each time. Besides, in [7], the inhibition result is “Dde”.
